According to patent US12312346B2, “Pyridopyrimidine compounds and methods of their use” (Tufts Medical Center, Inc., priority 2018, dated 2025):

System: human leukemia cell line HPBALL (with Notch1 mutations)
Assay: Cell cycle (PI staining, S-G2-M cells) and cell number, HPBALL
Format: cell-based
Conditions: Homo sapiens, 144 h; HPBALL, 6 days; read-out: IC50 (inhibition of proliferation, percentage of S-G2-M cells)
Procedure: FIG. 1A is a series of charts showing representative cell cycle profiles of human leukemia cell line HPBALL (with Notch1 mutations) treated with a vehicle (V) (for ribociclib (LEE) or compound GD) or LEE or compound GD for 6 days at 1, 5, 10, and 20 μM.
FIG. 1B is a histogram summarizing the cell cycle distribution of the HPBALL cell line treated with compound GD, as described for FIG. 1A. Data shown are mean±S.D. (n=6); *P<0.05 vs its vehicle controls, t-test.
FIG. 1C is a histogram summarizing the cell cycle distribution of the HPBALL cell line treated with ribociclib (LEE), as described for FIG. 1A. Data shown are mean±S.D. (n=6); *P<0.05 vs its vehicle controls, t-test.
FIG. 1D is a chart the percentage of S-G2-M cells in FIGS. 1B and 1C. IC50 is the concentration of an inhibitor where the response (here is the inhibition of proliferation) is reduced by half.
FIG. 1E is a bar graph summarizing the cell numbers of HPBALL cells treated with either GD with different doses or LEE (20 μM) for 6 days. Data shown are mean±S.D. (n=6); *P<0.05 vs vehicles (0) control, t-test.
HCl salt of 6-acetyl-5-methyl-2-((4-(piperazin-1-ylmethyl)thiazol-2-yl)amino)pyrido[2,3-d]pyrimidin-7(8H)-one (Compound GD) prepared in Example 1 was examined for its inhibitory activity in cancer cell lines and WT and CDK6^−/− mouse embryonic fibroblasts (MEFs) and stromal vascular fractions (SVFs). […]
Table 2: Experimental Procedures: sensitivity to CDK6 kinase activity inhibition was tested by incubating different cell lines in the presence of CDK6 inhibitor GD007/PBS for either 24 hours for detecting the status of pRB-780 phosphorylation, or 5 days for determining the effect of GD007 on cell proliferation. (1) By immunoblotting (WB), we will detect phospho-pRB-S^780, one of the substrates of CDK6 kinase; (2) By using FACS analysis, we will stain treated cells with Propidium Iodide (PI), a commonly used fluorescent intercalator, to measure the subpopulation of cell cycle to reveal any impact of CDK6 inhibition on cell proliferation; (3) cell numbers will be counted using hemocytometer.

IC50: ~12 µM
SMILES: CN(C)C(=O)c1cc2cnc(Nc3ccc(N4CCNCC4)cn3)nc2n1C1CCCC1 [LEE, ribociclib, reference compound]
